Where two headings read alike, the source gives them in different places.
Legend:
Format in all cases: in vivo
Nezara viridula = test: Green soldier stink bug (Nezara viridula) soybean pod spray test; conditions: 120 h, 5 days, late 3rd instar, read-out: Percent mortality in comparison with untreated controls
Procedure: (§1) If not otherwise specified, the test solutions are prepared as follows: The active compound is dissolved at the desired concentration in a mixture of 1:1 (vol:vol) distilled water: acteone. The test solution is prepared at the day of use. Test solutions are prepared in general at concentrations of 2500 ppm, 1415 ppm and 800 ppm (wt/vol).
The active compound is dissolved at the desired concentration in a mixture of 1:1 (vol:vol) distilled water: aceteone. Surfactant (Kinetic) is added at a rate of 0.01% (vol/vol).The test solution is prepared at the day of use. Soybean pods are placed in 90 × 50 mm glass Petri dishes lined with moistened filter paper and inoculated with ten late 3rd instar N. viridula. Using a hand atomizer, an approximately 2 ml solution is sprayed into each Petri dish. Treated set-up is kept at about 25-26° C. and relative humidity of about 65-70%. Percent mortality is recorded after 5 days.

Aedes aegypti = test: whole plant or invertebrate; conditions: 48 h, 2 days, freshly hatched larvae, read-out: Larval mortality in comparison with untreated controls
Procedure: as §1
For evaluating control of yellow fever mosquito (Aedes aegypti) the test unit consisted of 96-well-microtiter plates containing 200 µl of tap water per well and 5-15 freshly hatched A. aegypti larvae. The active compounds were formulated using a solution containing 75% (v/v) water and 25% (v/v) DMSO. Different concentrations of formulated compounds or mixtures were sprayed onto the […] at 2.5 µl, using a custom built micro atomizer, at two replications. After application, microtiter plates were incubated at 28 + 1° C., 80 + 5% RH for 2 days. Larval mortality was then visually assessed.

Myzus persicae = test: Green peach aphid (Myzus persicae) systemic artificial diet test; conditions: 72 h, read-out: Aphid mortality in comparison with untreated controls
Procedure: as §1
For evaluating control of green peach aphid (Myzus persicae) through systemic means the test unit consisted of 96-well-microtiter plates containing liquid artificial diet under an artificial membrane. The compounds were formulated using a solution containing 75% v/v water and 25% v/v DMSO. Different concentrations of formulated compounds were pipetted into the aphid diet, using a custom built pipetter, at two replications. After application, 5 - 8 adult aphids were placed on the artificial membrane inside the microtiter plate wells. The aphids were then allowed to suck on the treated aphid diet and incubated at about 23 ± 1° C. and about 50 ± 5 % relative humidity for 3 days. Aphid mortality and fecundity was then visually assessed.

Megoura viciae = test: Vetch aphid (Megoura viciae) broad bean leaf disk test; conditions: foliar, 120 h, 5 days, adult aphids on treated leaf disks, read-out: Aphid mortality in comparison with untreated controls
Procedure: as §1
For evaluating control of vetch aphid (Megoura viciae) through contact or systemic means the test unit consisted of 24-well-microtiter plates containing broad bean leaf disks.
The compounds were formulated using a solution containing 75% v/v water and 25% v/v DMSO. Different concentrations of formulated compounds were sprayed onto the leaf disks at 2.5 µl, using a custom built micro atomizer, at two replications. After application, the leaf disks were air-dried and 5 - 8 adult aphids placed on the leaf disks inside the microtiter plate wells. The aphids were then allowed to suck on the treated leaf disks and incubated at about 23 ± 1° C. and about 50 ± 5% relative humidity for 5 days. Aphid mortality and fecundity was then visually assessed.

Heliothis virescens = test: Tobacco budworm (Heliothis virescens) microtiter diet test; conditions: 120 h, read-out: Egg and larval mortality in comparison with untreated controls
Procedure: as §1
(§2) For evaluating control of tobacco budworm (Heliothis virescens) the test unit consisted of 96-well-microtiter plates containing an insect diet and 15-25 H. virescens eggs. The compounds were formulated using a solution containing 75% v/v water and 25% v/v DMSO. Different concentrations of formulated compounds were sprayed onto the insect diet at 10 µl, using a custom built micro atomizer, at two replications. After application, microtiter plates were incubated at about 28 ± 1° C. and about 80 ± 5% relative humidity for 5 days. Egg and larval mortality was then visually assessed.

[1] = test system: Trialeurodes vaporariorum; test: Greenhouse whitefly (Trialeurodes vaporariorum) egg plant leaf disk test; conditions: foliar, 144 h, 6 days, read-out: Mortality of hatched crawlers in comparison with untreated controls
Procedure: as §1
For evaluating control of Greenhouse Whitefly (Trialeurodes vaporariorum) the test unit consisted of 96-well-microtiter plates containing a leaf disk of egg plant leaf disk with white fly eggs. The compounds or mixtures were formulated using a solution containing 75% water and 25% DMSO. Different concentrations of formulated were sprayed onto the insect diet at 2.5 µl, using a custom built micro atomizer, at two replications. After application, microtiter plates were incubated at 23 ± 1° C., 65 ± 5% RH for 6 days. Mortality of hatched crawlers was then visually assessed.

Anthonomus grandis = test: Boll weevil (Anthonomus grandis) microtiter diet test; conditions: 120 h, read-out: Egg and larval mortality in comparison with untreated controls
Procedure: as §1
as §2, with “boll weevil (Anthonomus grandis)” for “tobacco budworm (Heliothis virescens)”, “5-10 A. grandis” for “15-25 H. virescens”, “5” for “10”, “25” for “28”, “75” for “80”

[2] = 800 ppm, 3 days, adult aphids on treated diet
[3] = 3 days, adult aphids on treated diet

CCS(=O)(=O)c1cc(C(C)(C)C#N)cnc1-c1cn2c(=O)n(C3CC3)c(C(F)(F)F)cc2n1 [Compound C-4]
> 75%: mortality at 800 ppm (Nezara viridula) | mortality at 800 ppm (Aedes aegypti) | mortality at 800 ppm (Myzus persicae; [2]) | mortality at 2500 ppm (Myzus persicae; [3]) | mortality at 2500 ppm (Megoura viciae) | mortality at 2500 ppm (Heliothis virescens; 5 days) | mortality at 800 ppm [1] | mortality at 2500 ppm [1] | mortality at 2500 ppm (Anthonomus grandis; 5 days)

CCS(=O)(=O)c1cc(/C=N/O)cnc1-c1cn2c(=O)n(C)c(C(F)(F)F)cc2n1 [Compound C-2]
> 75%: mortality at 2500 ppm (Myzus persicae; [3]) | mortality at 2500 ppm (Heliothis virescens; 5 days) | mortality at 2500 ppm (Anthonomus grandis; 5 days)

CCS(=O)(=O)c1cc(C(C)(C)C#N)cnc1-c1cn2c(=O)n(C)c(C(F)(F)F)cc2n1 [Compound C-5, 2-[5-ethylsulfonyl-6-[6-methyl-5-oxo-7-(trifluoromethyl)imidazo[1,2-c]pyrimidin-2-yl]-3-pyridyl]-2-methyl-propanenitrile]
> 75%: mortality at 800 ppm (Nezara viridula) | mortality at 2500 ppm (Myzus persicae; [3]) | mortality at 2500 ppm (Heliothis virescens; 5 days) | mortality at 2500 ppm [1] | mortality at 2500 ppm (Anthonomus grandis; 5 days)

CCS(=O)(=O)c1cc(C2=NOC3(CCCC3)C2)cnc1-c1cn2c(=O)n(C3CC3)c(C(F)(F)F)cc2n1 [Compound C-13, 6-cyclopropyl-2-[3-ethylsulfonyl-5-(1-oxa-2-azaspiro[4.4]non-2-en-3-yl)-2-pyridyl]-7-(trifluoromethyl)imidazo[1,2-c]pyrimidin-5-one]
> 75%: mortality at 800 ppm (Aedes aegypti) | mortality at 800 ppm (Myzus persicae) | mortality at 800 ppm (Heliothis virescens) | mortality at 800 ppm [1] | mortality at 800 ppm (Anthonomus grandis)

CCS(=O)(=O)c1cc(/C=N/OCC(F)(F)F)cnc1-c1cn2c(=O)n(C3CC3)c(C(F)(F)F)cc2n1 [Compound C-16]
> 75%: mortality at 800 ppm (Myzus persicae; [2]) | mortality at 800 ppm (Heliothis virescens; 800 ppm, 5 days) | mortality at 800 ppm [1] | mortality at 800 ppm (Anthonomus grandis; 800 ppm, 5 days)

CCS(=O)(=O)c1cc(/C=N/OC(C)C)cnc1-c1cn2c(=O)n(C3CC3)c(C(F)(F)F)cc2n1 [Compound C-15]
> 75%: mortality at 800 ppm (Nezara viridula) | mortality at 800 ppm (Myzus persicae; [2]) | mortality at 800 ppm (Heliothis virescens; 800 ppm, 5 days) | mortality at 800 ppm [1] | mortality at 800 ppm (Anthonomus grandis; 800 ppm, 5 days)

CCS(=O)(=O)c1cc(C2(C#N)CC2)cnc1-c1cn2c(=O)n(C3CC3)c(C(F)(F)F)cc2n1 [Compound C-6, 1-[6-[6-cyclopropyl-5-oxo-7-(trifluoromethyl)imidazo[1,2-c]pyrimidin-2-yl]-5-ethylsulfonyl-3-pyridyl]cyclopropanecarbonitrile]
> 75%: mortality at 800 ppm (Nezara viridula) | mortality at 800 ppm (Aedes aegypti) | mortality at 800 ppm (Heliothis virescens; 800 ppm, 5 days) | mortality at 800 ppm [1] | mortality at 800 ppm (Anthonomus grandis; 800 ppm, 5 days)

CCS(=O)(=O)c1cc(/C(C#N)=N/OCC2CC2)cnc1-c1cn2c(=O)n(C3CC3)c(C(F)(F)F)cc2n1 [Compound C-11]
> 75%: mortality at 800 ppm (Nezara viridula) | mortality at 800 ppm (Aedes aegypti) | mortality at 800 ppm (Myzus persicae; [2]) | mortality at 800 ppm (Heliothis virescens; 800 ppm, 5 days) | mortality at 800 ppm [1] | mortality at 800 ppm (Anthonomus grandis; 800 ppm, 5 days)

CCS(=O)(=O)c1cc(/C=N/OC)cnc1-c1cn2c(=O)n(C)c(C(F)(F)F)cc2n1 [Compound C-1]
> 75%: mortality at 800 ppm (Nezara viridula) | mortality at 800 ppm (Aedes aegypti) | mortality at 2500 ppm (Myzus persicae; [3]) | mortality at 2500 ppm (Megoura viciae) | mortality at 2500 ppm (Heliothis virescens; 5 days) | mortality at 2500 ppm (Anthonomus grandis; 5 days)

CCS(=O)(=O)c1cc(/C(C#N)=N/OCC#N)cnc1-c1cn2c(=O)n(C3CC3)c(C(F)(F)F)cc2n1 [Compound C-12]
> 75%: mortality at 800 ppm (Aedes aegypti) | mortality at 800 ppm (Myzus persicae; [2]) | mortality at 800 ppm (Anthonomus grandis; 800 ppm, 5 days)

CCS(=O)(=O)c1cc(C(C)(C)C#N)cnc1-c1cn2c(=O)n(CC3CC3)c(C(F)(F)F)cc2n1 [Compound C-7]
> 75%: mortality at 800 ppm (Nezara viridula) | mortality at 800 ppm (Aedes aegypti) | mortality at 800 ppm (Myzus persicae; [2]) | mortality at 800 ppm (Heliothis virescens; 800 ppm, 5 days) | mortality at 800 ppm (Anthonomus grandis; 800 ppm, 5 days)

CCS(=O)(=O)c1cc(/C=N/O)cnc1-c1cn2c(=O)n(C3CC3)c(C(F)(F)F)cc2n1 [Compound C-23, (3E)-6-[6-cyclopropyl-5-oxo-7-(trifluoromethyl)imidazo[1,2-c]pyrimidin-2-yl]-5-ethylsulfonyl-pyridine-3-carbaldehyde oxime]
> 75%: mortality at 800 ppm (Nezara viridula) | mortality at 800 ppm (Myzus persicae; [2])

CCS(=O)(=O)c1cc(/C=N/OCC(F)(F)F)cnc1-c1cn2c(=O)n(C)c(C(F)(F)F)cc2n1 [Compound C-3, 2-[3-ethylsulfonyl-5-[(E)-2,2,2-trifluoroethoxyiminomethyl]-2-pyridyl]-6-methyl-7-(trifluoromethyl)imidazo[1,2-c]pyrimidin-5-one]
> 75%: mortality at 800 ppm (Nezara viridula) | mortality at 800 ppm (Aedes aegypti) | mortality at 2500 ppm (Myzus persicae; [3]) | mortality at 2500 ppm (Megoura viciae) | mortality at 2500 ppm (Heliothis virescens; 5 days) | mortality at 2500 ppm (Anthonomus grandis; 5 days)

CCS(=O)(=O)c1cc(/C(C#N)=N/OCC(F)(F)F)cnc1-c1cn2c(=O)n(C3CC3)c(C(F)(F)F)cc2n1 [Compound C-10]
> 75%: mortality at 800 ppm (Nezara viridula) | mortality at 800 ppm (Aedes aegypti) | mortality at 800 ppm (Myzus persicae; [2]) | mortality at 800 ppm (Heliothis virescens; 800 ppm, 5 days) | mortality at 800 ppm (Anthonomus grandis; 800 ppm, 5 days)

CCS(=O)(=O)c1cc(/C(C#N)=N/O)cnc1-c1cn2c(=O)n(C3CC3)c(C(F)(F)F)cc2n1 [Compound C-8, (2Z)-2-[6-[6-cyclopropyl-5-oxo-7-(trifluoromethyl)imidazo[1,2-c]pyrimidin-2-yl]-5-ethylsulfonyl-3-pyridyl]-2-hydroxyimino-acetonitrile]
> 75%: mortality at 800 ppm (Myzus persicae; [2])

CCO/N=C/c1cnc(-c2cn3c(=O)n(C4CC4)c(C(F)(F)F)cc3n2)c(S(=O)(=O)CC)c1 [Compound C-14]
> 75%: mortality at 800 ppm (Nezara viridula) | mortality at 800 ppm (Aedes aegypti) | mortality at 800 ppm (Myzus persicae; [2]) | mortality at 800 ppm (Heliothis virescens; 800 ppm, 5 days) | mortality at 800 ppm (Anthonomus grandis; 800 ppm, 5 days)

CCS(=O)(=O)c1cc(/C(C#N)=N/OC)cnc1-c1cn2c(=O)n(C3CC3)c(C(F)(F)F)cc2n1 [Compound C-9]
> 75%: mortality at 800 ppm (Nezara viridula) | mortality at 800 ppm (Aedes aegypti) | mortality at 800 ppm (Myzus persicae; [2]) | mortality at 800 ppm (Heliothis virescens; 800 ppm, 5 days) | mortality at 800 ppm (Anthonomus grandis; 800 ppm, 5 days)

Source: patent US20230183245A1, “IMIDAZO-PYRIMIDONE COMPOUNDS AS PESTICIDES” (BASF SE, priority 2020, published 2023)
